In assay [1] the test system is H37Rv cells. As to the kind of experiment: Sp6 SML-phage drug susceptibility test: SML generation (RT-PCR) in drug-treated Mtb. Type of assay: cell-based. To be noted: 0.2 μg/ml INH, 2 μg/ml STR or 7.5 μg/ml EMB, Sp6 SML-phage MOI of 1 for 4 hr.
In assay [2] the test system is H37Rv cells. Nature of the assay: Effect of mucolytic agents on phage infection and SML generation. Type of assay: cell-based, Mtb. To be noted: equal volume of 0.5% NALC/2.9% NaCitrate or 200 mM TCEP/2.9% NaCitrate, one hour at 37° C., then SML-phage 4 hr; HiSalt conditions not given.
Setting [3] is: 16 hr treatment at 37° C. with 2 μg/ml RIF.
Setting [4] is: 40 hr treatment at 37° C. with 2 μg/ml RIF.

The text below walks through data of patent US8501400B2, “Methods and compositions for determining the pathogenic status of infectious agents” (priority 2007, dated 2013).

On to `CC[C@@H](CO)NCCN[C@@H](CC)CO` [EMB, Ethambutol], for which the “SML generation after drug treatment” value is “some detectable SML synthesis” with H37Rv cells [1] (setting [3]) and “completely abolished” with H37Rv cells [1] (setting [4]). The matching figures for `NNC(=O)c1ccncc1` [INH, isoniazid]: “some detectable SML synthesis” and “completely abolished”.

Turning to `CC(=O)N[C@@H](CS)C(=O)O` [NALC, N-acetyl-L-cysteine], the “Effect on phage infection and SML generation” value in the assay on H37Rv cells [2] is “no effect”. Regarding `[H]/N=C(/N)N[C@H]1[C@H](O)[C@@H](O)[C@H](O[C@@H]2O[C@@H](C)[C@](O)(C=O)[C@H]2O[C@@H]2O[C@@H](CO)[C@H](O)[C@@H](O)[C@@H]2NC)[C@@H](N/C(N)=N\[H])[C@@H]1O` [STR, Streptomycin], the “SML generation after drug treatment” value in the assay with H37Rv cells [1] (setting [3]) and in the assay on H37Rv cells [1] (setting [4]) was “no detectable SML” throughout. For `O=C(O)CCP(CCC(=O)O)CCC(=O)O` [TCEP, Tris-Carboxyethylphosphine], the “Effect on phage infection and SML generation” value in the assay on H37Rv cells [2] was “completely abolishes SML generation”.
